Measured values from patent publication US11053239B2, “Compounds as BLC-2-selective apoptosis-inducing agents” (Fochon Pharmaceuticals, Ltd., priority 2017, dated 2021).

Columns and labels:
RS4; 11 cells = experiment: Cell proliferation assay (MTS), RS4; 11 cells; type: cell-based; settings: Homo sapiens, RS4-11, 72 h, RS4; 11 (ATCC CRL-1873) cell proliferation, 30000 cells/well, 72 h, MTS; mechanism-based readout of Bcl-2 inhibition; read-out: RS4; 11 IC50
Outline: (§1)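 RS4;11 (30000 cells/well, 72 h) and DOHH2 (5000 cells/well, 120 h) cells in RPMI-1640/10% FBS, treated at 37 °C with compound at 1.5–10000 nM final. Viability by MTS (2 h, SDS stop), absorbance 490 nm minus 650 nm reference; IC50 fitted.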

DOHH2 cells = experiment: Cell proliferation assay (MTS), DOHH2 cells; type: cell-based; settings: Homo sapiens, DOHH-2, 120 h, DOHH2 (DSMZ ACC 47) cell proliferation, 5000 cells/well, 120 h, MTS; mechanism-based readout of Bcl-2 inhibition; read-out: DOHH2 IC50
Outline: as §1

Compound | IC50 (RS4; 11 cells) [nM] | IC50 (DOHH2 cells) [nM]
C[C@@H](CN1CCS(=N)(=O)CC1)Nc1ccc(S(=O)(=O)NC(=O)c2ccc(N3CCN(CC4=C(c5ccc(Cl)cc5)CC(C)(C)CC4)CC3)cc2Oc2cnc3[nH]ccc3c2)cc1[N+](=O)[O-] [Example 45, (S)-2-((1H-pyrrolo[2,3-b]pyridin-5-yl)oxy)-4-(4-((4′-chloro-5,5-dimethyl-3,4,5,6-tetrahydro-[1,1′-biphenyl]-2-yl)methyl)piperazin-1-yl)-N-((4-((1-(1-imino-1-oxido-1λ^6-thiomorpholino)propan-2-yl)amino)-3-nitrophenyl)sulfonyl) benzamide] | 119 | 121
CCOC(=O)N=S1(=O)CCN(C[C@H](C)Nc2ccc(S(=O)(=O)NC(=O)c3ccc(N4CCN(CC5=C(c6ccc(Cl)cc6)CC(C)(C)CC5)CC4)cc3Oc3cnc4[nH]ccc4c3)cc2S(=O)(=O)C(F)(F)F)CC1 [Example 76, ethyl (S)-(4-(2-((4-(N-(2-((1H-pyrrolo[2,3-b]pyridin-5-yl)oxy)-4-(4-((4′-chloro-5,5-dimethyl-3,4,5,6-tetrahydro-[1,1′-biphenyl]-2-yl)methyl)piperazin-1-yl)benzoyl)sulfamoyl)-2-((trifluoromethyl)sulfonyl)phenyl)amino)propyl)-1-oxido-1λ^6-thiomorpholin-1-ylidene) carbamate] | 208 | 247
CC(=O)N=S1(=O)CCN(CC[C@H](C)Nc2ccc(S(=O)(=O)NC(=O)c3ccc(N4CCN(CC5=C(c6ccc(Cl)cc6)CC(C)(C)CC5)CC4)cc3Oc3cnc4[nH]ccc4c3)cc2[N+](=O)[O-])CC1 [Example 80] | 47 | 95
CC1(C)CCC(CN2CCN(c3ccc(C(=O)NS(=O)(=O)c4ccc(NCC5CCC(N=S6(=O)CCCC6)CC5)c(S(=O)(=O)C(F)(F)F)c4)c(Oc4cnc5[nH]ccc5c4)c3)CC2)=C(c2ccc(Cl)cc2)C1 (stereo not shown) [Example 64, 2-((1H-pyrrolo[2,3-b]pyridin-5-yl)oxy)-4-(4-((4′-chloro-5,5-dimethyl-3,4,5,6-tetrahydro-[1,1′-biphenyl]-2-yl)methyl)piperazin-1-yl)-N-((4-(((4-((1-oxidotetrahydro-1λ^6-thiophen-1-ylidene)amino)cyclohexyl)methyl)amino)-3-((trifluoromethyl)sulfonyl)phenyl)sulfonyl)benzamide] | 216 | 320
CC1(C)CCC(CN2CCN(c3ccc(C(=O)NS(=O)(=O)c4ccc(NCC5CCC(N=S6(=O)CCOCC6)CC5)c(S(=O)(=O)C(F)(F)F)c4)c(Oc4cnc5[nH]ccc5c4)c3)CC2)=C(c2ccc(Cl)cc2)C1 (stereo not shown) [Example 55, 2-((1H-pyrrolo[2,3-b]pyridin-5-yl)oxy)-4-(4-((4′-chloro-5,5-dimethyl-3,4,5,6-tetrahydro-[1,1′-biphenyl]-2-yl)methyl)piperazin-1-yl)-N-((4-(((4-((4-oxido-1,4λ^6-oxathian-4-ylidene)amino)cyclohexyl)methyl)amino)-3-((trifluoromethyl)sulfonyl)phenyl)sulfonyl) benzamide] | 231 | 346
C[C@@H](CCN1CCS(=O)(=NC2CC2)CC1)Nc1ccc(S(=O)(=O)NC(=O)c2ccc(N3CCN(CC4=C(c5ccc(Cl)cc5)CC(C)(C)CC4)CC3)cc2Oc2cnc3[nH]ccc3c2)cc1S(=O)(=O)C(F)(F)F [Example 88, (S)-2-((1H-pyrrolo[2,3-b]pyridin-5-yl)oxy)-4-(4-((4′-chloro-5,5-dimethyl-3,4,5,6-tetrahydro-[1,1′-biphenyl]-2-yl)methyl)piperazin-1-yl)-N-((4-((4-(1-(cyclopropylimino)-1-oxido-1λ^6-thiomorpholino)butan-2-yl)amino)-3-((trifluoromethyl)sulfonyl)phenyl)sulfonyl)benzamide] | 187 | 464
C[C@@H](CN1CCP(C)(=O)CC1)Nc1ccc(S(=O)(=O)NC(=O)c2ccc(N3CCN(CC4=C(c5ccc(Cl)cc5)CC(C)(C)CC4)CC3)cc2Oc2cnc3[nH]ccc3c2)cc1[N+](=O)[O-] [Example 17, (S)-2-((1H-pyrrolo[2,3-b]pyridin-5-yl)oxy)-4-(4-((4′-chloro-5,5-dimethyl-3,4,5,6-tetrahydro-[1,1′-biphenyl]-2-yl)methyl)piperazin-1-yl)-N-((4-((1-(4-methyl-4-oxido-1,4-azaphosphinan-1-yl)propan-2-yl)amino)-3-nitrophenyl)sulfonyl)benzamide] | 111 | 132

These reach a lower IC50 (RS4; 11 cells). Values come first.

IC50 (RS4; 11 cells) [nM] | Compound | IC50 (DOHH2 cells) [nM]
24 | CC(C)C(=O)N=S1(=O)CCN(CCNc2ccc(S(=O)(=O)NC(=O)c3ccc(N4CCN(CC5=C(c6ccc(Cl)cc6)CC(C)(C)CC5)CC4)cc3Oc3cnc4[nH]ccc4c3)cc2[N+](=O)[O-])CC1 [Example 68, 2-((1H-pyrrolo[2,3-b]pyridin-5-yl)oxy)-4-(4-((4′-chloro-5,5-dimethyl-3,4,5,6-tetrahydro-[1,1′-biphenyl]-2-yl)methyl)piperazin-1-yl)-N-((4-((2-(1-(isobutyrylimino)-1-oxido-1λ^6-thiomorpholino)ethyl)amino)-3-nitrophenyl)sulfonyl) benzamide] | 217
22 | C[C@@H](CCN1CCS(=O)(=NC#N)CC1)Nc1ccc(S(=O)(=O)NC(=O)c2ccc(N3CCN(CC4=C(c5ccc(Cl)cc5)CC(C)(C)CC4)CC3)cc2Oc2cnc3[nH]ccc3c2)cc1[N+](=O)[O-] [Example 95, (S)-2-((1H-pyrrolo[2,3-b]pyridin-5-yl)oxy)-4-(4-((4′-chloro-5,5-dimethyl-3,4,5,6-tetrahydro-[1,1′-biphenyl]-2-yl)methyl)piperazin-1-yl)-N-((4-((4-(1-(cyanoimino)-1-oxido-1λ^6-thiomorpholino)butan-2-yl)amino)-3-nitrophenyl)sulfonyl) benzamide] | 71
16 | CCN=S1(=O)CCN(CC[C@H](C)Nc2ccc(S(=O)(=O)NC(=O)c3ccc(N4CCN(CC5=C(c6ccc(Cl)cc6)CC(C)(C)CC5)CC4)cc3Oc3cnc4[nH]ccc4c3)cc2[N+](=O)[O-])CC1 [Example 78, (S)-2-((1H-pyrrolo[2,3-b]pyridin-5-yl)oxy)-4-(4-((4′-chloro-5,5-dimethyl-3,4,5,6-tetrahydro-[1,1′-biphenyl]-2-yl)methyl)piperazin-1-yl)-N-((4-((4-(1-(ethylimino)-1-oxido-1λ^6-thiomorpholino)butan-2-yl)amino)-3-nitrophenyl)sulfonyl) benzamide] | 11
6 | CC1(C)CCC(CN2CCN(c3ccc(C(=O)NS(=O)(=O)c4ccc(NCC5(F)CCC(N=S(C)(C)=O)CC5)c([N+](=O)[O-])c4)c(Oc4cnc5[nH]ccc5c4)c3)CC2)=C(c2ccc(Cl)cc2)C1 (stereo not shown) [Example 58, 2-((1H-pyrrolo[2,3-b]pyridin-5-yl)oxy)-4-(4-((4′-chloro-5,5-dimethyl-3,4,5,6-tetrahydro-[1,1′-biphenyl]-2-yl)methyl)piperazin-1-yl)-N-((4-(((4-((dimethyl(oxo)-λ^6-sulfanylidene)amino)-1-fluorocyclohexyl)methyl)amino)-3-nitrophenyl)sulfonyl)benzamide] | 16
